In brackets after ≈: the same amount, converted by molar mass. Where two headings read alike, the source gives them in different places.
What was measured:
[1] = system: house flies, Musca domestica; experiment: insecticidal activity against house flies, topical application, mortality at 24 h; assay type: in vivo; conditions: read-out: House flies LD50
Protocol: (§1) Representative compounds of the N-arylthio- and N-alkylthiosulfinylcarbamate esters of the invention were tested for insecticidal activity against two insect species, house flies, Musca domestica, and mosquito larvae, Culex pipiens. Stock 1% concentrated solutions of each of the test compounds were made in acetone, and such solutions diluted with acetone to a concentration of 0.001-0.1%. House flies were treated topically on the notum by 1 μl of each of the diluted acetone solutions and percent mortality was counted 24 hours after application. Insects were held at a constant temperature of 60° F. Larvicidal activity was determined by applying 1 ml of the acetone solution in 100 ml of water containing 20 3rd instar mosquito larvae. Results are presented as LD50 in μg/g for house flies and LC50 in ppm for mosquito larvae.

[2] = in vivo; conditions: mouse, po
Protocol: Mammalian toxicity was determined against Swiss white mice. The test compound was applied orally using corn oil as the carrier.

[3] = system: mosquito larvae, Culex pipiens; experiment: larvicidal activity against mosquito larvae; assay type: in vivo; conditions: 3rd instar mosquito larvae, 1 ml acetone solution in 100 ml water
Protocol: as §1

[4] = house flies, topical on notum, 1 μl acetone solution, 24 hours

Row | SMILES | LD50 [1, 4] [mg/kg] | LD50 [2] [mg/kg] | LD50 ([1]; topical, 24 h) [mg/kg] | LC50 [3] [µg/mL]
1 | CSC(C)=NOC(=O)N(C)[S+]([O-])SC(C)(C)C (centres unmarked) [VIII, S-methyl N-[N'-methyl-N'-t-butylthiosulfinylcarbamoyloxy]thioacetimidate] | 5.5 | 135 |  | 
2 | CN(C(=O)Oc1cccc2ccccc12)[S+]([O-])Sc1ccccc1 (centres unmarked) [XIV, 1-naphthyl (methyl)(phenylthiosulfinyl)carbamate] |  | > 1000 | 350 | 
3 | CN(C(=O)Oc1cccc2c1OC(C)(C)C2)[S+]([O-])SC(C)(C)C (centres unmarked) [II, 2,3-dihydro-2,2-dimethylbenzofuranyl-7 (methyl)(t-butylthiosulfinyl)carbamate] |  | 70 | 9 | 0.01 (≈ 0.028 µM)
4 | Cc1cc(C(C)(C)C)ccc1S[S+]([O-])N(C)C(=O)Oc1ccccc1OC(C)C (centres unmarked) [VII, 2-isopropoxyphenyl (methyl)(2-methyl-4-t-butylphenylthiosulfinyl)carbamate] |  | > 1000 | 27 | 
5 | CCCCCCCCCCCCS[S+]([O-])N(C)C(=O)ON=CC(C)(C)SC (centres unmarked) [XII, 2-methyl-2-(methylthio)propionaldehyde O-[(methyl)(dodecylthiosulfinyl)carbamoyl]oxime] | 12 |  |  | 
6 | CNC(=O)Oc1cccc2c1OC(C)(C)C2 [carbofuran, 2,3-dihydro-2,2-dimethyl-7-benzofuranyl methylcarbamate, reference compound] |  | 2 to 8 | ~6.5 | 
7 | CC(C)c1cccc(OC(=O)N(C)[S+]([O-])SC(C)(C)C)c1 (centres unmarked) [Example X, 3-isopropylphenyl (methyl)(t-butylthiosulfinyl)carbamate] |  | 250 | 75 | 
8 | CCCCS[S+]([O-])N(C)C(=O)Oc1cccc2c1OC(C)(C)C2 (centres unmarked) [Example I, 2,3-dihydro-2,2-dimethylbenzofuranyl-7 (methyl)(n-butylthiosulfinyl)carbamate] |  | 45 | 16.5 | 
9 | CN(C(=O)Oc1cccc2c1OC(C)(C)C2)[S+]([O-])Sc1ccc(C(C)(C)C)cc1 (centres unmarked) [IV, 2,3-dihydro-2,2-dimethylbenzofuranyl-7 (methyl)(4-t-butylphenylthiosulfinyl)carbamate] |  | 92 | 11.8 | 
10 | CSC(C)=NOC(=O)N(C)[S+]([O-])Sc1ccccc1 (centres unmarked) [IX, S-methyl N-[N'-methyl-N'-phenylthiosulfinylcarbamoyloxy]thioacetimidate] | 6.5 | 150 |  | 
11 | Cc1cc(C(C)(C)C)ccc1S[S+]([O-])N(C)C(=O)Oc1cccc2c1OC(C)(C)C2 (centres unmarked) [Example V, 2,3-dihydro-2,2-dimethylbenzofuranyl-7 (methyl)(2-methyl-4-t-butylphenylthiosulfinyl)carbamate] |  | 70 | 8.8 | 
12 | CN(C(=O)Oc1cccc2c1OC(C)(C)C2)[S+]([O-])Sc1ccccc1 (centres unmarked) [III, 2,3-dihydro-2,2-dimethylbenzofuranyl-7 (methyl)(phenylthiosulfinyl)carbamate] |  | 32 | 7 | 0.05 (≈ 0.132 µM)
13 | CN(C(=O)Oc1cccc2ccccc12)[S+]([O-])SC(C)(C)C (centres unmarked) [XIII, 1-naphthyl (methyl)(t-butylthiosulfinyl)carbamate] |  | > 1000 | 235 | 
14 | CCCCS[S+]([O-])N(C)C(=O)Oc1ccccc1OC(C)C (centres unmarked) [Example VI, 2-isopropoxyphenyl (methyl)(n-butylthiosulfinyl)carbamate] |  | 1050 | 31 | 
15 | Cc1cc(C(C)(C)C)ccc1S[S+]([O-])N(C)C(=O)Oc1cccc(C(C)C)c1 (centres unmarked) [XI, 3-isopropylphenyl (methyl)(2-methyl-4-t-butylphenylthiosulfinyl)carbamate] |  | 450 | 62.5 | 
16 | CNC(=O)Oc1ccccc1OC(C)C [2-isopropoxyphenyl methylcarbamate, reference compound] |  | 60 |  | 

— patent US4262015A, “N-alkylthio- and N-arylthiosulfinylcarbamate esters” (priority 1979, dated 1981)
